Assay results: paper PMC12494099, “Discovery and Characterization of Novel IKZF1/3 Glue Degraders against Multiple Hematological Cancer Cell Lines” (Oncology Research, 2025)

Legend:
Type in all cases: cell-based
IKZF2-HiBiT = target: T1, IKZF2-HiBiT (Homo sapiens, UniProt Q9UKS7); assay: Quantitative degradation assay using the HiBiT system (HEK293T); settings: dose response 24 h and time course 1 µM
T1 construct: expressed in transfected cells; host or cells: HEK293T
Experimental: (§1) An in vitro quantitative degradation assay utilizing the HiBiT system was carried out as previously described. To evaluate the degradation of IKZF1, IKZF2, and IKZF3 proteins, HEK293T cell lines stably expressing IKZF1-, IKZF2-, IKZF3-, GSPT1- or CK1α-HiBiT were cultured in 96-well plates at 12,000 cells per well. The cells were treated with different concentrations of the test compounds (MGD-A7 and MGD-C9) with concentrations of 0, 0.01, 0.033, 0.1, 0.33, 1, 3.3, 10 and 33 μM for the specified time intervals. After the treatment, cell lysis was carried out using the Nano-Glo HiBiT Lytic Detection System (#N3040, Promega). All lysis operations were strictly carried out according to the manufacturer’s specific protocol. Then, the SpectraMax iD3 instrument (Molecular Devices, San Jose, CA, USA) was used to detect the luminescent signals released by the HiBiT-tagged neosubstrates.

CK1α-HiBiT = target: T2, CK1α-HiBiT (Homo sapiens, UniProt P48729); assay: as above; settings: increased dosing to 10 μM, 24 h
T2 construct: expressed in transfected cells; host or cells: HEK293T
Experimental: as §1

GSPT1-HiBiT = target: T3, GSPT1-HiBiT (Homo sapiens, UniProt P15170); assay: as above; settings: increased dosing to 10 μM, 24 h
T3 construct: expressed in transfected cells; host or cells: HEK293T
Experimental: as §1

[1] = test system: control vector MV-4-11 cells; assay: Cell viability, control vector cells; settings: Homo sapiens, MV4-11, 96 h
Experimental: (§2) Multiple cell lines (NCI-H929, OPM-2, U937, Ocl-Ly3, RPMI-8226, MOLM-13, Skm-1, MUTZ-1, SU-DHL-4, TMD8, U2932, WSU-DLCL-2, MV-4-11 and KG-1 cells) were plated into 96-well plates. The plated at a density of 15,000 cells per well, and each well contained 100 µL of medium. Subsequently, different compounds (MGD-AX, MGD-BX, MGD-CX) were added to each well. These compounds’ concentrations were set at 0, 0.01, 0.033, 0.1, 0.33, 1, 3.3, 10 and 33 μM, and the cells were incubated with the compounds for 96 h. To evaluate the antiproliferative effects of these compounds, the Cell Counting Kit-8 (CCK-8, #CX007, Epizyme, Shanghai, China) was used. All procedures were carried out in strict accordance with the manufacturer’s instructions (Dojindo Laboratories, Mamoto Ken, Japan). The half maximal inhibitory concentrations (IC50) values, which represent the concentrations of the test compounds that can inhibit 50% of cell activity, were calculated using GraphPad Prism 8.0 (GraphPad Software Inc., San Diego, CA, USA).
(§3) […] NCI-H929 and MV-4-11 cells were seeded at a density of 1 × 10^6 cells/well in 6-well tissue culture-treated plates. According to the manufacturer’s protocol (Santa Cruz Biotechnology, Inc, Dallas, TX, USA), CRBN CRISPR/Cas9 knockout Plasmid (#sc-412142), CRBN HDR plasmid (#sc-412142-HDR), UltraCruz® Transfection Reagent (#sc-395739) were pre-mixed in Plasmid Transfection Medium (#sc-108062) at a 1:1:2 mass ratio, and cells were transiently transfected in a 37°C, 5% CO2 incubator. After 72 h of infection, the medium was replaced with complete medium containing 3 μg/mL puromycin for 5–7 days. On day 7, GFP-positive cells were sorted as single cells into 96-well plates. Isolated single-cell clones were screened via western blot analysis, using wild-type NCI-H929 or MV-4-11 cells as positive controls.

[2] = test system: control vector NCI-H929 cells; assay: Cell viability, control vector cells; settings: Homo sapiens, NCI-H929, 96 h
Experimental: as §2, §3

CRBN^−/− NCI-H929 cells = assay: Cell apoptosis assay, CRBN knockout cells
Experimental: […] NCI-H929 and MV-4-11 cells were seeded at a density of 1 × 10^6 cells/well in 6-well tissue culture-treated plates. […] On day 7, GFP-positive cells were sorted as single cells into 96-well plates. Isolated single-cell clones were screened via western blot analysis, using wild-type NCI-H929 or MV-4-11 cells as positive controls.
Cells (NCI-H929 and MV-4-11) were seeded at a density of 1 × 10^6 cells per well into 6-well dishes. […] Apoptosis was assessed using an Annexin V-FITC kit (#ab14085; Abcam, MA, USA) on a FACS Calibur Flow Cytometer (Becton Dickinson, Franklin Lakes, NJ, USA). […] Finally, the samples were analyzed using a FACS Calibur Flow Cytometer.

IKZF3-HiBiT = target: T4, IKZF3-HiBiT (Homo sapiens, UniProt Q96SW2+Q9UKT9); assay: Quantitative degradation assay using the HiBiT system (HEK293T); settings: for reduction in IKZF3: 1 μM, time course; for DC50 / Dmax: HEK293T IKZF3-HiBiT, 24 h; for Dmax: HEK-293T, read-out: maximal degradation (Dmax) on IKZF3
T4 construct: expressed in transfected cells; host or cells: HEK293T
Experimental: as §1, with “The cells were treated with different concentrations of the test compounds (MGD-A7 and MGD-C9) with concentrations of 0, 0.01, 0.033, 0.1, 0.33, 1, 3.3, 10 and 33 μM for the specified time intervals.” left out

IKZF1-HiBiT = target: T5, IKZF1-HiBiT (Homo sapiens, UniProt Q13422+Q96SW2); assay: as above; settings: for reduction in IKZF1: 1 μM, time course; for DC50 / Dmax: HEK293T IKZF1-HiBiT, 24 h; for Dmax: HEK-293T, read-out: maximal degradation (Dmax) on IKZF1
T5 construct: expressed in transfected cells; host or cells: HEK293T
Experimental: as §1, with “The cells were treated with different concentrations of the test compounds (MGD-A7 and MGD-C9) with concentrations of 0, 0.01, 0.033, 0.1, 0.33, 1, 3.3, 10 and 33 μM for the specified time intervals.” left out

T4 sequence (Q9UKT9 whole entry): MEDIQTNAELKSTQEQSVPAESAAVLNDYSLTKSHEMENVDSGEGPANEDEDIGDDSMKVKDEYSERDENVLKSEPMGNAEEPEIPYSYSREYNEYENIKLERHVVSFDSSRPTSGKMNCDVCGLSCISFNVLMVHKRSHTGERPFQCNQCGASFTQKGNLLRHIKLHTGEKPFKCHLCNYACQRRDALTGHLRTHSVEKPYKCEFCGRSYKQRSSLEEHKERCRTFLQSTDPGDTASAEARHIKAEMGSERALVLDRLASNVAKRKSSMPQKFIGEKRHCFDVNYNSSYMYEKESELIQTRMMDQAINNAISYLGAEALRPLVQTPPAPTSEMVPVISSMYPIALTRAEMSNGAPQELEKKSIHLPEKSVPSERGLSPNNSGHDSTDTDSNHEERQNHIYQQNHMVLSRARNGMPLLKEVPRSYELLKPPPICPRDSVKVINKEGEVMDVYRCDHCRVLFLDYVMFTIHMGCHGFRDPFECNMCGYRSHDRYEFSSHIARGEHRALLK
T4 sequence (Q96SW2 whole entry): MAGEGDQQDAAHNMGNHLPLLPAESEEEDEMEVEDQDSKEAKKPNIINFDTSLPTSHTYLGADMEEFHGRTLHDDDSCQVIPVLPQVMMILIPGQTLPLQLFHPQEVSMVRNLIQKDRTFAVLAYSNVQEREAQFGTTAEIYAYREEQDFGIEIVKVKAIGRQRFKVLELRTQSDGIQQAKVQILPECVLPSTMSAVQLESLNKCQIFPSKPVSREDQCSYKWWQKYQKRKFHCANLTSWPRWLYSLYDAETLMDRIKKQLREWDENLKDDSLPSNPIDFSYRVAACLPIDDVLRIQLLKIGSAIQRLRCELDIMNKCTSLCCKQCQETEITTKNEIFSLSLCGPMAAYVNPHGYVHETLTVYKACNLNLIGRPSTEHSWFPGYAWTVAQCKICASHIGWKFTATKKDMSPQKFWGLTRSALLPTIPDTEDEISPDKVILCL
T4 sequence (Q16531 whole entry partner): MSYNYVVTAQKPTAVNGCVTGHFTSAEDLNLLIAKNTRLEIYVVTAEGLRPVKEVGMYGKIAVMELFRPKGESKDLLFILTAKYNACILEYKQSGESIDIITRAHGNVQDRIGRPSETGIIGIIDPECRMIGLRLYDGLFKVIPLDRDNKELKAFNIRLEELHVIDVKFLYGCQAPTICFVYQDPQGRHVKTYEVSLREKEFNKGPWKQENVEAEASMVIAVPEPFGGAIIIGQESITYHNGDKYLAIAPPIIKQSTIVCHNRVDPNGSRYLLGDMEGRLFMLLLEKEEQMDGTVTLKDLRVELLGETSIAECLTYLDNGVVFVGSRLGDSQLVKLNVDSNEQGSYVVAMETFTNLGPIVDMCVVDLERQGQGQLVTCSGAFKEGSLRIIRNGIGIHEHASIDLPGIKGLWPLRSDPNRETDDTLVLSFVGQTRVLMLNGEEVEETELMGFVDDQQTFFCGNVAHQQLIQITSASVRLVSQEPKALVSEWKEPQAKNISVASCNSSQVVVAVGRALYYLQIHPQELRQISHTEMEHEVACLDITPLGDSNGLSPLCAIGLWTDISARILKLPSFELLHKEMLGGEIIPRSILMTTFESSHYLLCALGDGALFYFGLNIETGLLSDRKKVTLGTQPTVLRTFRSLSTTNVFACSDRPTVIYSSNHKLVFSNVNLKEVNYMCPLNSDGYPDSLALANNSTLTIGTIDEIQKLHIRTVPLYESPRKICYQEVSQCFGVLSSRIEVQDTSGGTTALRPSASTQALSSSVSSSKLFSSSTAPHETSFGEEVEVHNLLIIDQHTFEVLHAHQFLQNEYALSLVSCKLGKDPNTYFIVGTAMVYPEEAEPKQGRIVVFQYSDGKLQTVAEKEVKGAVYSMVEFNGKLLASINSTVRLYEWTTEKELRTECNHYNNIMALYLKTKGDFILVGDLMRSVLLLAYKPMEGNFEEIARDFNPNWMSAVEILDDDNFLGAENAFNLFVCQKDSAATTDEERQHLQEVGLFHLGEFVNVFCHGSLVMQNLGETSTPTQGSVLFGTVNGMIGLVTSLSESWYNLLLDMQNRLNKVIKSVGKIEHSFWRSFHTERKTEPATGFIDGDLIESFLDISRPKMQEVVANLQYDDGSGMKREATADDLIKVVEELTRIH
T5 sequence (Q13422 whole entry): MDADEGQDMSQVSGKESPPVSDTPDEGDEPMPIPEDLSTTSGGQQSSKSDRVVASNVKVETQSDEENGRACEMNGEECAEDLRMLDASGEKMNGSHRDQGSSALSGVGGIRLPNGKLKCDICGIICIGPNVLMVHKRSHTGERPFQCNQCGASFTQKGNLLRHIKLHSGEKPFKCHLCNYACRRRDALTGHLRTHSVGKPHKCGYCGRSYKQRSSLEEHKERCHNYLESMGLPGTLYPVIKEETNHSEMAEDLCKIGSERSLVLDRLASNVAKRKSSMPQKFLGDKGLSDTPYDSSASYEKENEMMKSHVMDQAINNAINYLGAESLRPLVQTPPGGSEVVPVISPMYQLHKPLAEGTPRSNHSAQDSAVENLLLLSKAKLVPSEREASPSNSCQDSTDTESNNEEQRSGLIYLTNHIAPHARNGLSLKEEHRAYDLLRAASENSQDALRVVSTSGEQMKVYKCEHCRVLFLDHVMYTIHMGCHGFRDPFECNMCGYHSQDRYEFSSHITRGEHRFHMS
T5 sequence (Q96SW2 whole entry): as the sequence (Q96SW2 whole entry) above
T5 sequence (Q16531 whole entry partner): as the sequence (Q16531 whole entry partner) above
T3 sequence (Q96SW2 whole entry partner): as the sequence (Q96SW2 whole entry) above
T3 sequence (Q16531 whole entry partner): as the sequence (Q16531 whole entry partner) above
T3 sequence (P15170 whole entry): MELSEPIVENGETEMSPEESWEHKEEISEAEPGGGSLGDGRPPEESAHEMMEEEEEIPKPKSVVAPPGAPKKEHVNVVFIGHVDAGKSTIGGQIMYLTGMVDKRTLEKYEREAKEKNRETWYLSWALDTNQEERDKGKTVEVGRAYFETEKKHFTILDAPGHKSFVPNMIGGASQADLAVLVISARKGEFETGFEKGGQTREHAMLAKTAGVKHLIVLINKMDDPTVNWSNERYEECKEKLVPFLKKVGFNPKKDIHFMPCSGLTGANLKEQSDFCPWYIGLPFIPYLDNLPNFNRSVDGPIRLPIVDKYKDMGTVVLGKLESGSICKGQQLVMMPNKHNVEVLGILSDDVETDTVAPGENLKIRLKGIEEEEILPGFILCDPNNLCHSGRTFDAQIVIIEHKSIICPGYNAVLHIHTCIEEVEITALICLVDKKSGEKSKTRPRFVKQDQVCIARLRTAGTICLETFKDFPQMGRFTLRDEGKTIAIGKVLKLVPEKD
T1 sequence (Q96SW2 whole entry partner): as the sequence (Q96SW2 whole entry) above
T1 sequence (Q16531 whole entry partner): as the sequence (Q16531 whole entry partner) above
T1 sequence (Q9UKS7 whole entry): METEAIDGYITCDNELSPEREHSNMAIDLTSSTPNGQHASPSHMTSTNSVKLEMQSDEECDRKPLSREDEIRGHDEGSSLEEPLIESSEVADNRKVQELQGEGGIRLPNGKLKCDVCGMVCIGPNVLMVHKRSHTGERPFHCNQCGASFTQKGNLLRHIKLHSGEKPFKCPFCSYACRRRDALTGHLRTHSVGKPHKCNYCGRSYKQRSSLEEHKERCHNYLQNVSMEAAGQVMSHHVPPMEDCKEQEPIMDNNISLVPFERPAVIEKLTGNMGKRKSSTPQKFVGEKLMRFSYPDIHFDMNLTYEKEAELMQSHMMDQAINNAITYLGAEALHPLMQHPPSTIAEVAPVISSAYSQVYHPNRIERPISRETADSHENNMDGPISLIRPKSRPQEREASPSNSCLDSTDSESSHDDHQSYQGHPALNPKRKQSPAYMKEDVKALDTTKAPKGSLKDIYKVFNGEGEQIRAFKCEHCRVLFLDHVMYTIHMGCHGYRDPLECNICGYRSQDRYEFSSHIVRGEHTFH
T2 sequence (Q96SW2 whole entry partner): as the sequence (Q96SW2 whole entry) above
T2 sequence (Q16531 whole entry partner): as the sequence (Q16531 whole entry partner) above
T2 sequence (P48729 whole entry): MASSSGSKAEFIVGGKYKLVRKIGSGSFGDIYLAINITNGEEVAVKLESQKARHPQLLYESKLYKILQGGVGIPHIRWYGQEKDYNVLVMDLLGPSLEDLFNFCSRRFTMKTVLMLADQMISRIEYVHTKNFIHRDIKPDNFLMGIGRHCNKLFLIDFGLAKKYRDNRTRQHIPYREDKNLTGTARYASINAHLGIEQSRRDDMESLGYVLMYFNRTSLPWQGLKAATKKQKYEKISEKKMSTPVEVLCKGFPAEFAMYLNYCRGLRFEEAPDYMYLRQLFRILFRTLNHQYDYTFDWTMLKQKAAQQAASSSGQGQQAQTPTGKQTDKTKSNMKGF

Structure (SMILES) | effect on luminescence signals from IKZF2-HiBit (IKZF2-HiBiT) | degradation effect on luminescence signals of CK1α-HiBit (CK1α-HiBiT) | degradation effect on luminescence signals of GSPT1-HiBit (GSPT1-HiBiT) | IC50 [1] [nM] | IC50 [2] [nM] | apoptosis (in words) (CRBN^−/− NCI-H929 cells) | reduction in IKZF3 (IKZF3-HiBiT; 12 h) [%] | DC50 (IKZF3-HiBiT) [nM] | Dmax (IKZF3-HiBiT) [%] | reduction in IKZF1 (IKZF1-HiBiT; 12 h) [%] | DC50 (IKZF1-HiBiT) [nM] | Dmax (IKZF1-HiBiT) [%] | reduction in IKZF3 (IKZF3-HiBiT; 8 h) [%] | reduction in IKZF1 (IKZF1-HiBiT; 8 h) [%]
CN1CCN(Cc2cccc(C(=O)NC3CCC(=O)NC3=O)c2)CC1 (stereo not drawn) [MGD-A7, N-(2,6-dioxopiperidin-3-yl)-3-((4-methylpiperazin-1-yl)methyl)benzamide] | minimal inhibition | minimal degradation effects | minimal degradation effects | 676 | 638 | neither compound elicited apoptosis | > 80 | 110 | 86.4 | > 60 | 249 | 89.4 |  | 
CN1CCN(Cc2cccc(C(=O)NC3CCC(=O)NC3=O)c2F)C(=O)C1 (stereo not drawn) [MGD-C9, N-(2,6-dioxopiperidin-3-yl)-2-fluoro-3-((4-methyl-2-oxopiperazin-1-yl)methyl)benzamide] | minimal inhibition | minimal degradation effects | minimal degradation effects | 198 | 313 | neither compound elicited apoptosis |  | 57 | 92.1 |  | 96 | 90.3 | > 70 | > 60
